{
  "source": "patent US20250161273A1",
  "about": "“PHARMACEUTICAL COMPOSITION COMPRISING DIPHENYLDIAZOLE DERIVATIVES AND METHODS OF USE” (MODAG GMBH, priority 2022, published 2025)",
  "key": {"[1]": {"test_system": "monomer", "conditions": "cited from earlier work"}, "[2]": {"assay": "phase 1 first-in-human trial, multiple ascending dose (MAD) PK", "type": "in vivo", "conditions": "for reduction of AUC compared to Day 1 / reduction of Cmax compared to Day 1: Day 7, fasted; for fold increase in AUC / fold increase in Cmax: MAD Day 1; for AUC: read-out: AUC(0-tau) (geometric mean); for Cmax: read-out: Cmax (geometric mean)", "procedure": "Anle138b was studied in a single-centre, double-blind, randomised, placebo-controlled single ascending dose (SAD) and multiple ascending dose (MAD) study in healthy subjects. Eligible participants were randomly assigned (1:1 for sentinel subjects and 1:5 for main group) to placebo or anle138b (dose ranging from 50 mg to 300 mg per day), respectively. In addition, the effect of food on the pharmacokinetics (PK) of anle138b in healthy subjects was examined at doses of 150 mg per day (FES, food effect study). Participants were randomized to treatment sequence (fed→fasted) or (fasted→fed). Treatment for the SAD, MAD and FES arms of the study was administered orally in hard gelatin capsules containing either 10 mg or 30 mg of anle138b with excipient (i.e., lauroyl polyoxyl-32 glycerides) or excipient only. The primary endpoints were safety and tolerability, the secondary endpoint was pharmacokinetics. Data from all randomized individuals were evaluated. [Clinicaltrials.gov-identifier: NCT04208152. EudraCT-number: 2019-004218-33]\nStudy design: A single-centre, double-blind, randomised, placebo-controlled single ascending dose (SAD) and multiple ascending dose (MAD) study of anle138b in doses of up to 300 mg per day in healthy subjects. The effect of food (FES) on the PK of anle138b in healthy subjects was examined using doses of 150 mg. Participants were recruited from Quotient Sciences (the “CRO”, Nottingham, UK) volunteer database. Approvals from the ethical review board and from the Medicines and Healthcare products Regulatory Agency (UK) were obtained. This study was conducted in accordance with the protocol and with the following legislation: The updated version of the international Council for Harmonisation Good Clinical Practice (GCP) including the integrated Addendum E6, the Medicines for Human Use (Clinical Trials) Regulations including amendments No. 1928, 2984 and 941. In addition, the study was performed according to the ethical principles outlined in the World Medical Association Declaration of Helsinki and its amendments. The study data was monitored. An independent study monitor was appointed to verify that the study was conducted in accordance with current GCP, regulatory requirements, the protocol and that the data were authentic, accurate and complete.\nIn SAD, subjects received a single dose of anle138b or placebo after fasting from all food and drink (except water) for a minimum of 8 h prior to dosing. The dosing in the four SAD-cohorts were 50 mg, 100 mg, 200 mg and 300 mg of free anle138b equivalent, QD, cohorts A, B, C and D respectively. In the MAD part, participants received anle138b or placebo once daily (QD) for 7 days after fasting from all food and drink (except water) for a minimum of 8 h prior to dosing. The dosing in the three MAD-cohorts was 100 mg, 200 mg and 300 mg of free anle138b equivalent, cohorts AM, BM and CM, respectively. Post dosing mouth and hand checks were conducted to ensure the capsules were swallowed. In-study decisions were made by the safety advisory committee (SAC) comprising the principal investigator, the sponsor's medical monitor and a PK expert. For dose escalation to proceed, data needed to be available from a minimum of 6 subjects per cohort with completed per protocol safety and PK assessments up to 48 h after dosing to ensure at least 4 subjects had received active IMP. The decision to proceed to the next higher dose level was based on safety, tolerability and available PK data to 48 h post-administration. The following data were analyzed: Adverse events, vital signs, safety laboratory, ECG, physical examinations, plasma concentrations of anle138b with interim PK parameter estimations (Tmax, Cmax, AUC0-24, AUC0-tau, AUC0-last and T½, where applicable). Data were provided to the SAC in accordance with CRO standard operating procedure (SOP) on interim dose decision-making and dose escalation. […]"}, "[3]": {"assay": "28-day toxicity study in rats", "type": "in vivo", "text": "Safe starting dose & exposure limit justification: This trial followed the recommendations of the EMA (European Medicines Agency) (EMEA/CHMP/SWP/28367/07 Rev. 1; 20 Jul. 2017) and the FDA (Food and Drug Administration) (Guidance for Industry: Estimating the Maximum Safe Starting Dose in Initial Clinical Trials for Therapeutics in Adult Healthy Volunteers. U.S. Department of Health and Human Services Food and Drug Administration Center for Drug Evaluation and Research (CDER) July 2005) for dose finding in a first-in-human study. The safe starting dose was set based on toxicity studies in animals. In a 28-day toxicity study in rats, the no-observed-adverse-effect-level (NOAEL) was determined to be 50 mg/kg/day (human equivalent dose of 8.1 mg/kg). The dose range of the current trial was designed to start at 50 mg. Escalation between doses was planned to be flexible depending on emerging results but not to exceed an increment of 2-fold."}, "[4]": {"test_system": "oligomer accumulation", "conditions": "range of different mouse models; cited from earlier work"}, "[5]": {"conditions": "1.5-fold increase in dose from 200 mg to 300 mg"}, "[6]": {"conditions": "2-fold increase in dose from 100 mg to 200 mg"}, "[7]": {"conditions": "human, plasma, oral, 100 mg, healthy volunteers, fasted, 100 mg QD, Day 1"}, "[8]": {"conditions": "human, plasma, oral, 100 mg, healthy volunteers, fasted, 100 mg QD, Day 7"}, "[9]": {"conditions": "human, plasma, oral, 200 mg, healthy volunteers, fasted, 200 mg QD, Day 1"}, "[10]": {"conditions": "human, plasma, oral, 200 mg, healthy volunteers, fasted, 200 mg QD, Day 7"}, "[11]": {"conditions": "human, plasma, oral, 300 mg, healthy volunteers, fasted, 300 mg QD, Day 1"}, "[12]": {"conditions": "human, plasma, oral, 300 mg, healthy volunteers, fasted, 300 mg QD, Day 7"}},
  "note": "Read-outs that look alike come from different tables or passages of the source.",
  "data": [
    {"smiles": "Brc1cccc(-c2cc(-c3ccc4c(c3)OCO4)n[nH]2)c1", "note": "[anle138b, 3-(1,3-benzodioxol-5-yl)-5-(3-bromophenyl)-1H-pyrazole]", "values": [
      {"measurement": "binding to the monomer (in words)", "setting": "[1]", "value": "does not bind to the monomer"},
      {"measurement": "reduction of AUC compared to Day 1", "setting": "[2]; MAD 100 mg group", "value": "about 53%"},
      {"measurement": "reduction of Cmax compared to Day 1", "setting": "[2]; MAD 100 mg group", "value": "about 53%"},
      {"measurement": "reduction of AUC compared to Day 1", "setting": "[2]; MAD 200 mg group", "value": "about 70%"},
      {"measurement": "reduction of Cmax compared to Day 1", "setting": "[2]; MAD 200 mg group", "value": "about 70%"},
      {"measurement": "reduction of AUC compared to Day 1", "setting": "[2]; MAD 300 mg group", "value": 71, "unit": "%"},
      {"measurement": "reduction of Cmax compared to Day 1", "setting": "[2]; MAD 300 mg group", "value": 66, "unit": "%"},
      {"measurement": "fold increase in AUC", "setting": "[2]; [5]", "value": 2.4, "unit": "fold"},
      {"measurement": "fold increase in Cmax", "setting": "[2]; [5]", "value": 2.0, "unit": "fold"},
      {"measurement": "fold increase in AUC", "setting": "[2]; [6]", "value": 3.5, "unit": "fold"},
      {"measurement": "fold increase in Cmax", "setting": "[2]; [6]", "value": 3.3, "unit": "fold"},
      {"measurement": "accumulation ratios per cohort", "setting": "[2]; MAD, Day 7 vs Day 1", "value": "below 0.54"},
      {"measurement": "day by which steady state exposure appeared to be reached", "setting": "[2]; MAD, based on trough levels", "value": "≤ 5", "unit": "days"},
      {"measurement": "Tmax", "setting": "[2]; human, plasma, oral, 100 mg, healthy volunteers, fasted, 100 mg QD (Cohort AM), Day 1, read-out: Tmax (median)", "value": 1, "unit": "h"},
      {"measurement": "Tmax", "setting": "[2]; human, plasma, oral, 100 mg, healthy volunteers, fasted, 100 mg QD (Cohort AM), Day 1, read-out: Tmax (range)", "value": "1 to 1.5", "unit": "h"},
      {"measurement": "Tmax", "setting": "[2]; human, plasma, oral, 100 mg, healthy volunteers, fasted, 100 mg QD (Cohort AM), Day 7, read-out: Tmax (median)", "value": 1.25, "unit": "h"},
      {"measurement": "Tmax", "setting": "[2]; human, plasma, oral, 100 mg, healthy volunteers, fasted, 100 mg QD (Cohort AM), Day 7, read-out: Tmax (range)", "value": "1 to 1.5", "unit": "h"},
      {"measurement": "AUC", "setting": "[2]; [7]", "value": "~261", "unit": "ng·h/mL"},
      {"measurement": "Cmax", "setting": "[2]; [7]", "value": "~135", "unit": "ng/mL"},
      {"measurement": "AUC", "setting": "[2]; [8]", "value": "~141", "unit": "ng·h/mL"},
      {"measurement": "Cmax", "setting": "[2]; [8]", "value": "~70.9", "unit": "ng/mL"},
      {"measurement": "half-life", "setting": "[2]; human, plasma, oral, 100 mg, healthy volunteers, fasted, 100 mg QD, Day 7, read-out: T1/2 (geometric mean) (converted)", "value": "~4.23", "unit": "h"},
      {"measurement": "Tmax", "setting": "[2]; human, plasma, oral, 200 mg, healthy volunteers, fasted, 200 mg QD (Cohort BM), Day 1, read-out: Tmax (median)", "value": 1.5, "unit": "h"},
      {"measurement": "Tmax", "setting": "[2]; human, plasma, oral, 200 mg, healthy volunteers, fasted, 200 mg QD (Cohort BM), Day 1, read-out: Tmax (range)", "value": "1 to 2.02", "unit": "h"},
      {"measurement": "Tmax", "setting": "[2]; human, plasma, oral, 200 mg, healthy volunteers, fasted, 200 mg QD (Cohort BM), Day 7, read-out: Tmax (median)", "value": 1, "unit": "h"},
      {"measurement": "Tmax", "setting": "[2]; human, plasma, oral, 200 mg, healthy volunteers, fasted, 200 mg QD (Cohort BM), Day 7, read-out: Tmax (range)", "value": "1 to 1.5", "unit": "h"},
      {"measurement": "AUC", "setting": "[2]; [9]", "value": "~905", "unit": "ng·h/mL"},
      {"measurement": "Cmax", "setting": "[2]; [9]", "value": "~447", "unit": "ng/mL"},
      {"measurement": "AUC", "setting": "[2]; [10]", "value": "~308", "unit": "ng·h/mL"},
      {"measurement": "Cmax", "setting": "[2]; [10]", "value": "~128", "unit": "ng/mL"},
      {"measurement": "half-life at 7 days", "setting": "[2]; human, plasma, oral, 200 mg, healthy volunteers, fasted, 200 mg QD, Day 7, read-out: T1/2 (geometric mean) (converted)", "value": "~10", "unit": "h"},
      {"measurement": "Tmax", "setting": "[2]; human, plasma, oral, 300 mg, healthy volunteers, fasted, 300 mg QD (Cohort CM), Day 1, read-out: Tmax (median)", "value": 1.5, "unit": "h"},
      {"measurement": "Tmax", "setting": "[2]; human, plasma, oral, 300 mg, healthy volunteers, fasted, 300 mg QD (Cohort CM), Day 1, read-out: Tmax (range)", "value": "1.5 to 2", "unit": "h"},
      {"measurement": "Tmax", "setting": "[2]; human, plasma, oral, 300 mg, healthy volunteers, fasted, 300 mg QD (Cohort CM), Day 7, read-out: Tmax (median)", "value": 1.5, "unit": "h"},
      {"measurement": "Tmax", "setting": "[2]; human, plasma, oral, 300 mg, healthy volunteers, fasted, 300 mg QD (Cohort CM), Day 7, read-out: Tmax (range)", "value": "1 to 1.5", "unit": "h"},
      {"measurement": "AUC", "setting": "[2]; [11]", "value": "~2210", "unit": "ng·h/mL"},
      {"measurement": "Cmax", "setting": "[2]; [11]", "value": "~910", "unit": "ng/mL"},
      {"measurement": "AUC", "setting": "[2]; [12]", "value": "~633", "unit": "ng·h/mL"},
      {"measurement": "Cmax", "setting": "[2]; [12]", "value": "~307", "unit": "ng/mL"},
      {"measurement": "half-life", "setting": "[2]; human, plasma, oral, 300 mg, healthy volunteers, fasted, 300 mg QD, Day 7, read-out: T1/2 (geometric mean) (converted)", "value": "~6.07", "unit": "h"},
      {"measurement": "Tmax", "setting": "[2]; human, plasma, oral, healthy volunteers, 100-300 mg QD, post-administration, read-out: median Tmax, all MAD cohorts", "value": "1 to 1.5", "unit": "h"},
      {"measurement": "no-observed-adverse-effect-level (NOAEL)", "setting": "[3]; 28-day toxicity study in rats", "value": 50, "unit": "mg/kg/day"},
      {"measurement": "NOAEL at 28 days", "setting": "[3]; rat, in vivo", "value": 8.1, "unit": "mg/kg"},
      {"measurement": "effect in mouse models in vivo (in words)", "setting": "[4]", "value": "strongly inhibited oligomer accumulation, neuronal degeneration, and disease progression"}
    ]}
  ]
}
